# Reference: patent publication US20230414601A1, “INJECTABLE COMPOSITION CONTAINING CASPASE INHIBITOR, AND PREPARATION METHOD THEREFOR” (LG CHEM, LTD., priority 2020, published 2023)
# Test: Test for API loss according to continuous phase
# Type: physicochemical
# Description: A dispersed phase was prepared by dissolving a certain amount of the Test Compound (API) in an organic solvent (dichloromethane, DCM), and 1 mL of the prepared dispersed phase was added to each continuous phase and then stirred to measure the amount of the API extracted into the continuous phase.
compound,measurement,setting,value
"CC(C)[C@@]1(C(=O)N[C@H]2CC(=O)O[C@]2(O)CF)CC(c2nccc3ccccc23)=NO1 [Test Compound, (R)-N-((2S,3S)-2-(fluoromethyl)-2-hydroxy-5-oxotetrahydrofuran-3-yl)-5-isopropyl-3-(isoquinolin-1-yl)-4,5-dihydroisoxazole-5-carboxamide]",Amount of API extracted into continuous phase (%),continuous phase 0.01N HCl,4.0%
same,Amount of API extracted into continuous phase (%),"continuous phase DW, dispersed phase API in DCM, 1 mL",3.7%
same,Amount of API extracted into continuous phase (%),continuous phase PVA 1 wt %,24.9%
same,Amount of API extracted into continuous phase (%),continuous phase PVA 1 wt % + 1N HCl,13.1%
same,Amount of API extracted into continuous phase (%),continuous phase PVA 5 wt %,59.3%
